Data as given in patent publication US20230190723A1 (MEREO BIOPHARMA 4 LIMITED, priority 2020, published 2023).
Blank lines part the entries; values can stand above or below the molecule they belong to.

Assays:
[1] = target: T1, neutrophil elastase (Homo sapiens, UniProt P08246); assay: proteinase/anti-proteinase imbalance model (fMLP-stimulated isolated neutrophils with fibrinogen, NE activity footprint Aα-Val360); format: cell-based; settings: for NE activity remaining, % of untreated (Aα-Val360): no inhibitor = 100%
T1 construct: Neutrophils from healthy young volunteers were isolated; endogenous in cells; host or cells: neutrophils isolated from blood of healthy young volunteers, stimulated with fMLP in the presence of fibrinogen
T1 sequence (P08246 30-267): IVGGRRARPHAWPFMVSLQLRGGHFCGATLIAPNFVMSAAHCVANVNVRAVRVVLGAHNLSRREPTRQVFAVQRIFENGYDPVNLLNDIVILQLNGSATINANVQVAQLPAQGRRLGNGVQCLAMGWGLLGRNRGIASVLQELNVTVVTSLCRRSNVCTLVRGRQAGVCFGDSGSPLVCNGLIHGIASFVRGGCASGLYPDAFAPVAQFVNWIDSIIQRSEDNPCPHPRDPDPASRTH

[2] = target: T2, NE (Homo sapiens, UniProt P08246); assay: enzyme kinetics: SlaaapN cleavage by NE in the presence of inhibitor; format: biochemical
T2 construct: purchased Athens Research and Technology, US
T2 sequence (P08246 30-267): T1 sequence (P08246 30-267)
Method: Results were determined computationally using Prism software.

[3] = tested on: neutrophils; assay: validation of the Aα-Val360 assay with stimulated neutrophils; format: cell-based, human; settings: 15 minutes
Method: Baseline corrected Aα-Val^360 levels following stimulation of neutrophils at 2.5 million/ml with Cal at 2.4/2.1/1.8/1.5/1.2/0.9/0.6/0.3 μM with fibrinogen (550 nM) for 60 minutes; n=3.
Change in Aα-Val^360 levels following stimulation of neutrophils at 2.5 million/ml with fMLP at 0, 0.1,1,10 μM fMLP with fibrinogen (550 nM) for 15 minutes; n=3.
To determine maximal stimulation a potent stimulator of neutrophils, Cal, [11] was titrated out from 0-2.4 μM and specific proteinase fibrinogen-cleavage product measured.
To assess a more physiological stimulus, neutrophils were then incubated with N-formylmethionine-leucyl-phenylalanine (fMLP).

[4] = target: Porcine Pancreatic Elastase (Sus scrofa, UniProt P00772); assay: enzyme kinetics: SlaaapN cleavage by PPE after incubation with AAT; format: biochemical
[5] = simple linear regression, control fixed at 100%

Porcine Pancreatic Elastase, sequence (P00772 27-266): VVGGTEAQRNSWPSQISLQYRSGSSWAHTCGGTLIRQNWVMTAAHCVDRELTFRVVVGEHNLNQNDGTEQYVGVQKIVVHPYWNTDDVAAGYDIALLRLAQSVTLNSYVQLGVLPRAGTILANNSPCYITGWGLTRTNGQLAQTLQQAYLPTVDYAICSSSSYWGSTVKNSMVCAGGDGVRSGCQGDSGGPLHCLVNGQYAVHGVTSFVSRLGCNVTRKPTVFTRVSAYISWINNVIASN

NE activity remaining, % of untreated (Aα-Val360) ([1]; alvelestat 10 nM): 60.1%
NE activity remaining, % of untreated (Aα-Val360) ([1]; alvelestat 1000 nM): 27.4%
inhibition at 1 µM ([1]; read-out: inhibition (suppression) of NE activity): 72.6%
molar ratio of inhibitor required to fully inhibit NE (inhibitor:NE, x:1) ([2]; SlaaapN substrate, by extrapolation): 0.87
Slope, best-fit value (alvelestat:NE ratio vs NE enzymatic activity, FIG. 7) [2, 5]: −114.4
X-intercept, best-fit value (alvelestat:NE ratio vs NE enzymatic activity, FIG. 7) [2, 5]: 0.8742
alvelestat activity against NE ([2]; titrated against elastase of known concentration and activity, Prism): 88%
Molecule: Cc1c(-c2ccnn2C)cc(C(=O)NCc2ccc(S(C)(=O)=O)cn2)c(=O)n1-c1cccc(C(F)(F)F)c1 [alvelestat, 6-methyl-5-(1-methyl-1H-pyrazol-5-yl)-N-{[5-(methylsulfonyl)pyridin-2-yl]methyl}-2-oxo-1-[3-(trifluoromethyl)phenyl]-1,2-dihydropyridine-3-carboxamide]

Molecule: CSCC[C@H](NC=O)C(=O)N[C@@H](CC(C)C)C(=O)N[C@@H](Cc1ccccc1)C(=O)O [fMLP, N-formyl-L-methionyl-L-leucyl-phenylalanine]
increase of NE activity (Aα-Val360) ([3]; 0.1 μM fMLP, neutrophils 2.5 million/ml, fibrinogen 550 nM): 11.4 nM
further increase of NE activity (Aα-Val360) ([3]; 1 μM fMLP, relative to 0.1 μM): 7.3 nM
increase of NE activity (Aα-Val360) ([3]; 10 μM fMLP, the values are: Aα-Val360 level (NE activity)): 35 nM

molar concentration of AAT required to neutralise 1 Mol active PPE ([4]; SlaaapN substrate): 1.208 mol
functional AAT activity ([4]; calculated from 1.208:1 AAT:PPE): 83%
Molecule: AAT: protective anti-proteinase alpha-1 antitrypsin, physiological inhibitor of neutrophil serine proteinases; purified batch from Athens Research & Technology
